The test system of test [1] is HCT116 MTAP-deleted cells. As to the kind of experiment: Cell viability assay (CellTiter-Glo, 7 days), HCT116 MTAP-deleted. The following applies: Homo sapiens, HCT-116, 168 h.
Test [2] has as its system SDMA signal (PRMT5 inhibition) in HCT116 MTAP-deleted cells. As to the kind of experiment: Symmetric di-methyl arginine image-based high content screen assay (SDMA assay), HCT116 MTAP-deleted. The format is cell-based. Particulars: SDMA assay; for EC50: Homo sapiens, HCT-116, 72 h, 3 days of treatment, cell line not given, taken as HCT116 MTAP-deleted, read-out: EC50 (SDMA assay). The gist of the method: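 HCT116 MTAP-deleted cells treated with compound until Day 3, then formalin-fixed, permeabilized and immunostained for SDMA, with DAPI nuclear counterstain. Imaged by high-content microscopy; SDMA read-out is mean Alexa 488 intensity per DAPI-defined cell, reflecting PRMT5 inhibition.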

Setting [3] is: taken as HCT116 WT versus MTAP-deleted.
[4] abbreviates: taken as HCT116 WT vs MTAP-deleted.

Where only a bound is given, the exact number is not on record here.

Regarding `CC(=O)N(C)N(Cc1ccc(C#CC2CCOC2)cc1F)C(=O)c1ccc2nc(N)c3cnn(C)c3c2c1` (stereo not drawn) [Example 388, N′-acetyl-4-amino-N-[[2-fluoro-4-(2-tetrahydrofuran-3-ylethynyl)phenyl]methyl]-N′,1-dimethyl-pyrazolo[4,3-c]quinoline-8-carbohydrazide], in test [1], the CC50 is below 100 nM. Also, the EC50 in test [2] was below 1 nM. Besides, the “EC50 selectivity (SDMA assay)” value in test [2] (setting [3]) was 40.

On to `CN(c1ccsn1)N(Cc1ccc(C(F)(F)F)cn1)C(=O)c1ccc2nc(N)c3cnn(C)c3c2c1` [Example 361], for which the CC50 in test [1] is below 100 nM. For the same molecule, in test [2], the EC50 is below 1 nM. Besides, the “EC50 selectivity (SDMA assay)” value in test [2] (setting [3]) was determined as 34.

`CC(=O)N(C)N(Cc1cnc(-c2ccccc2)n1C)C(=O)c1cc2c(cc1F)nc(N)c1cnn(C)c12` [Example 421, N′-acetyl-4-amino-7-fluoro-N′,1-dimethyl-N-((1-methyl-2-phenyl-1H-imidazol-5-yl)methyl)-1H-pyrazolo[4,3-c]quinoline-8-carbohydrazide] yielded a CC50 in test [1] below 100 nM. Also, the half-maximal effective concentration (EC50) in test [2] fell in the range of 1 to 5 nM. Also, in test [2] (setting [4]), the “EC50 selectivity (SDMA assay)” value turned out to be 73.

As to `CC(=O)N(C)N(Cc1ccc(C(F)(F)F)cn1)C(=O)c1ccc2nc(N)c3sncc3c2c1` [Example 69, N′-acetyl-4-amino-N′-methyl-N-[[5-(trifluoromethyl)-2-pyridyl]methyl]isothiazolo[5,4-c]quinoline-8-carbohydrazide], the CC50 in test [1] is 100 to 1000 nM. The EC50 in test [2] is 1 to 5 nM. Further, the “EC50 selectivity (SDMA assay)” value in test [2] (setting [3]) was 142.

In test [1], `Cn1ncc2c(N)nc3ccc(C(=O)N(Cc4ccc(C(F)(F)F)cn4)NC(=O)C45CC(C4)C5)cc3c21` [Example 332, 4-amino-N′-(bicyclo[1.1.1]pentane-1-carbonyl)-1-methyl-N-((5-(trifluoromethyl)pyridin-2-yl)methyl)-1H-pyrazolo[4,3-c]quinoline-8-carbohydrazide] had a CC50 below 100 nM. Besides, in test [2], the EC50 is below 1 nM. The “EC50 selectivity (SDMA assay)” value in test [2] (setting [3]) is 308.

In test [1], `CN(C(=O)C1(C(F)(F)F)CC1)N(Cc1ccc(C(F)(F)F)cn1)C(=O)c1ccc2nc(N)c3cnn(C)c3c2c1` [Example 52, 4-amino-N′, 1-dimethyl-N′-[1-(trifluoromethyl)cyclopropanecarbonyl]-N-[[5-(trifluoromethyl)-2-pyridyl]methyl]pyrazolo[4,3-c]quinoline-8-carbohydrazide] gave a CC50 of 100 to 1000 nM. Also, in test [2], the EC50 was in the range of 1 to 5 nM. In addition, the “EC50 selectivity (SDMA assay)” value in test [2] (setting [3]) was 174.

The molecule `CC(=O)N1CCN(N(Cc2ccc(C(F)(F)F)cn2)C(=O)c2ccc3nc(N)c4cnn(C)c4c3c2)CC1` [Example 384, N-(4-acetylpiperazin-1-yl)-4-amino-1-methyl-N-[[5-(trifluoromethyl)-2-pyridyl]methyl]pyrazolo[4,3-c]quinoline-8-carboxamide] gave a CC50 in test [1] of 100 to 1000 nM. Moreover, the EC50 in test [2] lay in the range of 1 to 5 nM. Further, the “EC50 selectivity (SDMA assay)” value in test [2] (setting [3]) was found to be 283.

Turning to `CC(=O)N(C)N(Cc1c(F)cc(F)cc1F)C(=O)c1ccc2nc(N)c3cnn(C)c3c2c1` [Example 413, N′-acetyl-4-amino-N′,1-dimethyl-N-(2,4,6-trifluorobenzyl)-1H-pyrazolo[4,3-c]quinoline-8-carbohydrazide], the CC50 in test [1] is below 100 nM. In addition, the EC50 in test [2] is below 1 nM. Besides, the “EC50 selectivity (SDMA assay)” value in test [2] (setting [4]) is given as 497.

In test [1], `CN(C(=O)C1(C#N)CCC1)N(Cc1ccc(C(F)(F)F)cn1)C(=O)c1ccc2nc(N)c3cnn(C)c3c2c1` [Example 192, 4-amino-N′-(1-cyanocyclobutanecarbonyl)-N′,1-dimethyl-N-[[5-(trifluoromethyl)-2-pyridyl]methyl]pyrazolo[4,3-c]quinoline-8-carbohydrazide] displayed a CC50 of 100 to 1000 nM. Moreover, the EC50 in test [2] is 1 to 5 nM. The “EC50 selectivity (SDMA assay)” value in test [2] (setting [3]) was 185.

`CC(=O)N(C)N(Cc1ccc(-c2ccc(C(F)(F)F)cc2)cc1F)C(=O)c1ccc2nc(N)c3cnn(C)c3c2c1` [Example 231, N′-acetyl-4-amino-N-((3-fluoro-4′-(trifluoromethyl)-[1,1′-biphenyl]-4-yl)methyl)-N′,1-dimethyl-1H-pyrazolo[4,3-c]quinoline-8-carbohydrazide]: the CC50 in test [1] was below 100 nM. In test [2], the EC50 fell in the range of 1 to 5 nM. In addition, the “EC50 selectivity (SDMA assay)” value in test [2] (setting [3]) was determined as 18.

For `CN(C(=O)C1(C)CC1)N(Cc1ccc(C(F)(F)F)cn1)C(=O)c1ccc2nc(N)c3cnn(C)c3c2c1` [Example 51, 4-amino-N′,1-dimethyl-N′-(1-methylcyclopropanecarbonyl)-N-[[5-(trifluoromethyl)-2-pyridyl]methyl]pyrazolo[4,3-c]quinoline-8-carbohydrazide], in test [1], the CC50 is below 100 nM. The EC50 in test [2] was 1 to 5 nM. The “EC50 selectivity (SDMA assay)” value in test [2] (setting [3]) is on record as 260.

The molecule `Cn1ncc2c(N)nc3cc(Cl)c(C(=O)N(Cc4ccc(C(F)(F)F)cn4)N4CCCCC4=O)cc3c21` [Example 148, 4-amino-7-chloro-1-methyl-N-(2-oxopiperidin-1-yl)-N-((5-(trifluoromethyl)pyridin-2-yl)methyl)-1H-pyrazolo[4,3-c]quinoline-8-carboxamide] displayed a CC50 in test [1] below 100 nM. In test [2], the EC50 was in the range of 1 to 5 nM. For the same molecule, the “EC50 selectivity (SDMA assay)” value in test [2] (setting [3]) is on record as 66.

The molecule `CN(C(=O)C(C)(C)F)N(Cc1ccc(C(F)(F)F)cn1)C(=O)c1ccc2nc(N)c3cnn(C)c3c2c1` [Example 121, 4-amino-N′-(2-fluoro-2-methylpropanoyl)-N′,1-dimethyl-N-((5-(trifluoromethyl)pyridin-2-yl)methyl)-1H-pyrazolo[4,3-c]quinoline-8-carbohydrazide] had a CC50 in test [1] below 100 nM. In test [2], the EC50 was below 1 nM. Further, in test [2] (setting [3]), the “EC50 selectivity (SDMA assay)” value stood at 106.

As to `CC(=O)N(C)N(Cc1nc2cc(C(F)(F)F)ccc2n1C)C(=O)c1ccc2nc(N)c3cnn(C)c3c2c1` [Example 423, N′-acetyl-4-amino-N′,1-dimethyl-N-((1-methyl-5-(trifluoromethyl)-1H-benzo[d]imidazol-2-yl)methyl)-1H-pyrazolo[4,3-c]quinoline-8-carbohydrazide], the CC50 in test [1] was below 100 nM. Further, in test [2], the 50% effective concentration (EC50) fell in the range of 1 to 5 nM. Further, the “EC50 selectivity (SDMA assay)” value in test [2] (setting [4]) came to 149.

For `Cc1cc(CN(C(=O)c2ccc3nc(N)c4cnn(C)c4c3c2)N(C)C(=O)C2CC2)c(F)cc1-c1cnn(C(F)F)c1` [Example 318, 4-amino-N′-(cyclopropanecarbonyl)-N-(4-(1-(difluoromethyl)-1H-pyrazol-4-yl)-2-fluoro-5-methylbenzyl)-N′,1-dimethyl-1H-pyrazolo[4,3-c]quinoline-8-carbohydrazide], the CC50 in test [1] was below 100 nM. Besides, in test [2], the EC50 was below 1 nM. For the same molecule, the “EC50 selectivity (SDMA assay)” value in test [2] (setting [3]) came out at 130.

As to `Cn1ncc2c(N)nc3cc(F)c(C(=O)N(Cc4ccc(C(F)(F)F)cc4F)N4CCOCC4)cc3c21` [Example 398, 4-amino-7-fluoro-N-[[2-fluoro-4-(trifluoromethyl)phenyl]methyl]-1-methyl-N-morpholino-pyrazolo[4,3-c]quinoline-8-carboxamide], in test [1], the CC50 was below 100 nM. Besides, in test [2], the EC50 fell in the range of 1 to 5 nM. Further, the “EC50 selectivity (SDMA assay)” value in test [2] (setting [4]) turned out to be 31.

These data come from patent US20240254118A1, “PRMT5 INHIBITORS AND USES THEREOF” (Gilead Sciences, Inc., priority 2022, published 2024).
